Values after ≈ are worked out from the molar mass of the structure shown. Like-named read-outs stand apart in the source and are kept apart here.
What was measured:
Botrtyis cinerea (Bc) = test: Growth inhibition assay of fungal pathogens; assay type: cell-based; conditions: 48 h, read-out: Concentration at 90% Inhibition Bc
Method in brief: (§1)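 Percent growth inhibition was derived from 48 h OD600 and visual scores relative to 2% DMSO, with blank background subtraction. Fungi were grown from spores in 17% V8 liquid medium, R. solani from 1.5 mm plugs in ¼ PDB, with compound at final 50/10/2 or 2/0.4/0.08 ppm.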

[1] = test system: Fusarium moniliforme (Fm); test: Growth inhibition assay of fungal pathogens; assay type: cell-based; conditions: for IC90: Fusarium verticillioides, 48 h, read-out: Concentration at 90% Inhibition Fm
Method in brief: as §1

Septoria tritici (St) = test: Growth inhibition assay of fungal pathogens; assay type: cell-based; conditions: for IC90: Zymoseptoria tritici, read-out: Concentration at 90% Inhibition St
Method in brief: (§2)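 Liquid-culture assay in which test compounds are applied at three final concentrations (50, 10, 2 ppm or 2, 0.4, 0.08 ppm). Inoculum levels follow 48 h growth curves for each fungus. Growth is monitored by OD600 and by eye, and the 48 h values give % inhibition against DMSO.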

[2] = test system: Phytophthora capsici (Pc); test: Growth inhibition assay of fungal pathogens; assay type: cell-based; conditions: for IC90: Phytophthora capsici, read-out: Concentration at 90% Inhibition Pc
Method in brief: as §2

Rhizoctonia solani (Rs) = test: Growth inhibition assay of fungal pathogens; assay type: cell-based; conditions: 48 h, read-out: Concentration at 90% Inhibition Rs
Method in brief: as §1

[3] = test system: Collectotrichum graminicola (Cg); test: Growth inhibition assay of fungal pathogens; assay type: cell-based; conditions: 48 h, read-out: Concentration at 90% Inhibition Cg
Method in brief: as §2

[4] = test system: Fusarium virguliforme (Fv); test: Growth inhibition assay of fungal pathogens; assay type: cell-based; conditions: 48 h
Method in brief: as §2

Diplodia maydis (Dm) = test: Growth inhibition assay of fungal pathogens; assay type: cell-based; conditions: Stenocarpella maydis, 48 h, read-out: Concentration at 90% Inhibition Dm
Method in brief: as §1

human (hACC2) ACC2 = human (hACC2) ACC2 (Homo sapiens, UniProt O00763); test: In vitro Acetyl-CoA Carboxylase (ACC) inhibition assay (ADP-Glo), hACC2; assay type: biochemical
Protocol: The detailed procedure is as follows. […] 10 μL ADP glo reagent was added. […] 20 μL kinase detection reagent was added.
“NA” stands for “not assayed.”

[5] = test system: C. parapsilosis ATCC 22019; test: Anti-Fungal (Candida) Activity Assay, broth microtiter MIC; assay type: cell-based; conditions: Lodderomyces parapsilosis, read-out: MIC C. parapsilosis ATCC 22019
Method in brief: (§3)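 In CLSI M27-A3 microtiter plates, yeast from overnight agar culture is inoculated in RPMI 1640–MOPS at a standard-curve density. The MIC is the endpoint scored visually against growth control at 48 h.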

C. albicans ATCC 90028 = test: as above; assay type: cell-based; conditions: read-out: MIC C. albicans ATCC 90028
Method in brief: as §3

C. krusei ATCC 6258 = test: as above; assay type: cell-based; conditions: Pichia kudriavzevii, read-out: MIC C. krusei ATCC 6258
Method in brief: as §3

fungal (fACC2) ACC2 = fungal (fACC2) ACC2 (UniProt Q00955); conditions: read-out: fACC2 IC50; fungal ACC2, ADP-Glo
[6] = read-out: Concentration at 90% Inhibition Fv, Table 4a, 48 hours
[7] = read-out: Concentration at 90% Inhibition Fv, Table 4b, 48 hours

fungal (fACC2) ACC2, sequence (Q00955 whole entry): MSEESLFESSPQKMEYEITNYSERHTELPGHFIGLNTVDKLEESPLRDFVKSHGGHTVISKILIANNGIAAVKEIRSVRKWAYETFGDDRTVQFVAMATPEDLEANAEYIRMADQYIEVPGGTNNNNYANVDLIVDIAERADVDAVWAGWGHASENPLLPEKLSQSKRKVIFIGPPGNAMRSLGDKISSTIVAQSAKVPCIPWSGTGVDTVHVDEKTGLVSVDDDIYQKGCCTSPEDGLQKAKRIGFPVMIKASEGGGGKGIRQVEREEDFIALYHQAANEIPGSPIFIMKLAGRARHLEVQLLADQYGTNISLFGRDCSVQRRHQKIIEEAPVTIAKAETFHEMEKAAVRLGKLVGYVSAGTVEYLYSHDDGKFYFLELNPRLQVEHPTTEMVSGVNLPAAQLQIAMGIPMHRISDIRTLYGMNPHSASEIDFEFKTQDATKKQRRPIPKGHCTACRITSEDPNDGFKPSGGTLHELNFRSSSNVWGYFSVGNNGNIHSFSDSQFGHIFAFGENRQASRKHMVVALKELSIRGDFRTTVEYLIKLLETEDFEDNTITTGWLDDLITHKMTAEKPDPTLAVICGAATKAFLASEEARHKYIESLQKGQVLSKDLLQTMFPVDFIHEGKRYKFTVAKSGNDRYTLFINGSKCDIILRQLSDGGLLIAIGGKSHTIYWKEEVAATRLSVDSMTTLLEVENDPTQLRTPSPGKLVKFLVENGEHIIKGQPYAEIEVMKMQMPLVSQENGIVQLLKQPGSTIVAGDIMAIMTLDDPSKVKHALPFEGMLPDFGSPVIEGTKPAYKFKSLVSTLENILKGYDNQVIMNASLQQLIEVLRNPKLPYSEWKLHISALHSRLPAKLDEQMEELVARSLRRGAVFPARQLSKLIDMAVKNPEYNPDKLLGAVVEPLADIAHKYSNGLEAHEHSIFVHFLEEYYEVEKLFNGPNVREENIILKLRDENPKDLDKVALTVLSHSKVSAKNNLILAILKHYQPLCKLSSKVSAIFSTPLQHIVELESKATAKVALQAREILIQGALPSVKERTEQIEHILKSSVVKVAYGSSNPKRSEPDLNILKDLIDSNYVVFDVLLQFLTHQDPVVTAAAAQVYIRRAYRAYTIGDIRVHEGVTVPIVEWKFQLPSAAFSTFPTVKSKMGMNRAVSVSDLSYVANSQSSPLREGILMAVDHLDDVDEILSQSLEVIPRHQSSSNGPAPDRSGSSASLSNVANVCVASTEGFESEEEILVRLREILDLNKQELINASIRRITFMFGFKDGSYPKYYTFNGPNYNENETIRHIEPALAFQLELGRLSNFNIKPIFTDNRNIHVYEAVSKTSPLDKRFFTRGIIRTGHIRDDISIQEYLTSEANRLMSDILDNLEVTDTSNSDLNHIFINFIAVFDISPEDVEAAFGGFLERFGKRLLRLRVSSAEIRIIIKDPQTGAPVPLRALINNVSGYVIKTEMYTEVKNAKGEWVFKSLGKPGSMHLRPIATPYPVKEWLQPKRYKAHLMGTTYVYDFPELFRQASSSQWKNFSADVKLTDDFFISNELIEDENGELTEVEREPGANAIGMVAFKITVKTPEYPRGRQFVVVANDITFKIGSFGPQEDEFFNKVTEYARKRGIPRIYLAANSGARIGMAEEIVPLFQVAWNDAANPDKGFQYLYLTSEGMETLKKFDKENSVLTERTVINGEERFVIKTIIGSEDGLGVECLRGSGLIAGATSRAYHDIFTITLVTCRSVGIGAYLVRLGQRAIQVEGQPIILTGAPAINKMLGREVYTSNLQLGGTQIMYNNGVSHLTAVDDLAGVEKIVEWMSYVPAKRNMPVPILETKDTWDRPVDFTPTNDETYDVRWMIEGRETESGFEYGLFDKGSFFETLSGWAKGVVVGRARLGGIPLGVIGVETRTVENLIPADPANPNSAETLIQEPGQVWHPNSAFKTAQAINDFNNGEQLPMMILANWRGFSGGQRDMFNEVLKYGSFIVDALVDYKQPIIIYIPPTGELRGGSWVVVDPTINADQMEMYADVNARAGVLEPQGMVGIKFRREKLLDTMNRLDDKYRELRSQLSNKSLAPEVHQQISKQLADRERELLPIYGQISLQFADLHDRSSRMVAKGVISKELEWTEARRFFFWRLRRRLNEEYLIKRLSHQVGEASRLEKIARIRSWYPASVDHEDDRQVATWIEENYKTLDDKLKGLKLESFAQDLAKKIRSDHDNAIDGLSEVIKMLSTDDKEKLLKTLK
human (hACC2) ACC2, sequence (O00763 whole entry): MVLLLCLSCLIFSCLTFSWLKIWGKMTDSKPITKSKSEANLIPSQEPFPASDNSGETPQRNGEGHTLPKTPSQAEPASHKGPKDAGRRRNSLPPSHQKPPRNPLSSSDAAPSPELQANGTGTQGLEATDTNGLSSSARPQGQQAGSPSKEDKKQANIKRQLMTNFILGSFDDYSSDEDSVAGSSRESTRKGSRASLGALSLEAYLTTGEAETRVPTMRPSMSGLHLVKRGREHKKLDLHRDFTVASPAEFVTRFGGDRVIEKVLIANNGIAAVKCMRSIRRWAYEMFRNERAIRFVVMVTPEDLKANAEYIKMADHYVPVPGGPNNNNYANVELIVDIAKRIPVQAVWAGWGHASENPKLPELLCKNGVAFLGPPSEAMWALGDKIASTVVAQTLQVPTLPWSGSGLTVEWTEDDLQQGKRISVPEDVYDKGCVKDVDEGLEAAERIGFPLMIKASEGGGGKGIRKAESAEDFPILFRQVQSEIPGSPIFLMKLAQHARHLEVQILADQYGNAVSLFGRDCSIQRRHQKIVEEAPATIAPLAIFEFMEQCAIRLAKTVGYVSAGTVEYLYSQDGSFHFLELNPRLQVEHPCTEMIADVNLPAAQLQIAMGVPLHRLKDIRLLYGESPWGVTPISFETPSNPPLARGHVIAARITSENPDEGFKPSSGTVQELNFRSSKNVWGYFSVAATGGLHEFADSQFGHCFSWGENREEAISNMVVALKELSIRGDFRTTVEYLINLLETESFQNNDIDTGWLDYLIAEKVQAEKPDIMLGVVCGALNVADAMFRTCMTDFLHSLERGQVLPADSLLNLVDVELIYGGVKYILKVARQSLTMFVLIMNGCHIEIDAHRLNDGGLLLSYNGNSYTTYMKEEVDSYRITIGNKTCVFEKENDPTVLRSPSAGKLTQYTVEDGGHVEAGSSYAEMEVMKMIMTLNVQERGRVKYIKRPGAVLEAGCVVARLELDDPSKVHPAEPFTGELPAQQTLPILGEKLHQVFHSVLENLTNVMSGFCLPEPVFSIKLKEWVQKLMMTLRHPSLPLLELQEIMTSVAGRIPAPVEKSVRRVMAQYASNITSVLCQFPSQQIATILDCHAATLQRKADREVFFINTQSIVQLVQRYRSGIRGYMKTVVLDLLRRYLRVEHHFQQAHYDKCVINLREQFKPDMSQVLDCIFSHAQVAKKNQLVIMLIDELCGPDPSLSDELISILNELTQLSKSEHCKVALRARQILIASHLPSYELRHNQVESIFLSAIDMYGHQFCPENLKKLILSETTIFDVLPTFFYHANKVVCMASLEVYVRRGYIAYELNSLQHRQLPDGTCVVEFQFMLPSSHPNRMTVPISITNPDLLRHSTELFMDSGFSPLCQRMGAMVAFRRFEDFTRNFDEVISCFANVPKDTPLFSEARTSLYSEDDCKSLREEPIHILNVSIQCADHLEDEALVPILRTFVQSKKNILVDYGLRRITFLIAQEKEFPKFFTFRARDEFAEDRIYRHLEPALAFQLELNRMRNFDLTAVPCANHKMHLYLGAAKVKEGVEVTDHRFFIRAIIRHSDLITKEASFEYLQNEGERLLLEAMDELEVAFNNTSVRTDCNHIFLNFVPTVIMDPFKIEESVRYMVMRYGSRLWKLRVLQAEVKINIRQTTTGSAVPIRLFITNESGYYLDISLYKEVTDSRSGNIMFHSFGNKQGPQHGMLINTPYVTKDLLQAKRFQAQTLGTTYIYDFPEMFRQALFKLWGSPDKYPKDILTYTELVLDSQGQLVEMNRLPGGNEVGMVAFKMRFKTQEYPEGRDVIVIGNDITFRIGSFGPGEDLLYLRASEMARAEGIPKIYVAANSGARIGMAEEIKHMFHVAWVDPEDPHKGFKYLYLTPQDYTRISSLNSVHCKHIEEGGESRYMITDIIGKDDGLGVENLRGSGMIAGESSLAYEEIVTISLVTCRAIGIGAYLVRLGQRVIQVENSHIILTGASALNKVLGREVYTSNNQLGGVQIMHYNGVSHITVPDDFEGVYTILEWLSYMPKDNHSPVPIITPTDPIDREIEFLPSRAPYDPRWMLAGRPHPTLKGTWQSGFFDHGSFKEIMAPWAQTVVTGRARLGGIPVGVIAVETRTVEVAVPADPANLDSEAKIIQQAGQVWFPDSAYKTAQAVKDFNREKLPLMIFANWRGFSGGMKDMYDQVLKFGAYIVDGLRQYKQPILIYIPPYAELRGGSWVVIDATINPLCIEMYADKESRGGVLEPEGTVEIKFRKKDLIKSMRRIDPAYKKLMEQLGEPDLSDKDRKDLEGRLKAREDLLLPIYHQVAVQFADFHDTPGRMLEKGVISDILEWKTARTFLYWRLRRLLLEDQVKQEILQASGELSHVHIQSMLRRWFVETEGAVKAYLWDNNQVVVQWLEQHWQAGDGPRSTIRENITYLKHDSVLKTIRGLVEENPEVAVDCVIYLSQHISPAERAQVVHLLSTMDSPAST

Q: `COc1ccc(F)cc1[C@H](Cn1c(=O)n(CC(=O)N2CCCC2)c(=O)c2c(C)c(-n3cccn3)sc21)OC(C)C` [Compound I-28, (R)-1-(2-(5-fluoro-2-methoxyphenyl)-2-isopropoxyethyl)-5-methyl-3-(2-oxo-2-(pyrrolidin-1-yl)ethyl)-6-(1H-pyrazol-1-yl)thieno[2,3-d]pyrimidine-2,4(1H,3H)-dione] was tested. Which IC90 (Botrtyis cinerea (Bc); Table 4a) did it give?
A: 2 µg/mL (≈ 3.51 µM)

Q: And the IC90 (Botrtyis cinerea (Bc); Table 4b)?
A: 2 µg/mL (≈ 3.51 µM)

Q: What about the IC90 ([1]; Table 4a, 48 hours) of the same molecule?
A: 0.4 µg/mL (≈ 0.702 µM)

Q: What about the IC90 ([1]; Table 4b, 48 hours) of the same molecule?
A: 0.4 µg/mL (≈ 0.702 µM)

Q: And the “Concentration at 90% Inhibition St” value (Septoria tritici (St); Table 4b, 48 hours)?
A: D (“D” provided a compound concentration of >50 ppm at 90% inhibition of fungal pathogens)

Q: What about the IC90 (Septoria tritici (St); Table 4a, 48 hours) of the same molecule?
A: > 50 µg/mL

Q: What about the IC90 ([2]; Table 4a, 48 hours) of the same molecule?
A: > 50 µg/mL

Q: What about the “Concentration at 90% Inhibition Pc” value ([2]; Table 4b, 48 hours) of the same molecule?
A: D (“D” provided a compound concentration of >50 ppm at 90% inhibition of fungal pathogens)

Q: And the IC90 (Rhizoctonia solani (Rs); Table 4a)?
A: 10 µg/mL (≈ 17.6 µM)

Q: What about the IC90 (Rhizoctonia solani (Rs); Table 4b) of the same molecule?
A: 2 µg/mL (≈ 3.51 µM)

Q: What about the IC90 ([3]; Table 4a) of the same molecule?
A: > 50 µg/mL

Q: What about the IC90 ([3]; Table 4b) of the same molecule?
A: 10 µg/mL (≈ 17.6 µM)

Q: What about the IC90 ([4]; Table 4a, 48 hours, read-out: Concentration at 90% Inhibition Fv) of the same molecule?
A: 2 µg/mL (≈ 3.51 µM)

Q: And the IC90 ([4]; Table 4b, 48 hours, read-out: Concentration at 90% Inhibition Fv)?
A: 2 µg/mL (≈ 3.51 µM)

Q: And the IC90 (Diplodia maydis (Dm); Table 4a)?
A: > 50 µg/mL

Q: And the IC90 (Diplodia maydis (Dm); Table 4b)?
A: > 50 µg/mL

Q: What about the IC50 (human (hACC2) ACC2) of the same molecule?
A: 10 to 40 nM

Q: And the MIC ([5]; ATCC22019, 3 replicates, MIC recorded at 48 h)?
A: 0.25 to 1 µg/mL (≈ 0.439 to 1.76 µM)

Q: And the MIC (C. albicans ATCC 90028; ATCC90028, 3 replicates, MIC recorded at 48 h)?
A: 0.25 to 1 µg/mL (≈ 0.439 to 1.76 µM)

Q: What about the MIC (C. krusei ATCC 6258; ATCC6258, 3 replicates, MIC recorded at 48 h) of the same molecule?
A: 0.25 to 1 µg/mL (≈ 0.439 to 1.76 µM)

Q: And the IC50 (fungal (fACC2) ACC2)?
A: 0.6 to 3 nM

Q: `COc1ccc(F)cc1[C@H](Cn1c(=O)n(C(C)C(=O)NC(C)C)c(=O)c2c(C)c(-n3cccn3)sc21)OC(C)C` (stereo partly drawn) [Compound I-29, 2-(1-((R)-2-(5-fluoro-2-methoxyphenyl)-2-isopropoxy-ethyl)-5-methyl-2,4-dioxo-6-(1H-pyrazol-1-yl)-1,4-dihydrothieno[2,3-d]pyrimidin-3(2H)-yl)-N-isopropylpropanamide] was tested. Which IC90 (Botrtyis cinerea (Bc); Table 4a) did it give?
A: 2 µg/mL (≈ 3.5 µM)

Q: What about the IC90 (Botrtyis cinerea (Bc); Table 4b) of the same molecule?
A: 2 µg/mL (≈ 3.5 µM)

Q: What about the IC90 [1] of the same molecule?
A: 0.4 µg/mL (≈ 0.7 µM)

Q: And the “Concentration at 90% Inhibition Fm” value ([1]; Table 4b, 48 hours)?
A: A (“A” provided a compound concentration of 0.4 ppm at 90% inhibition of fungal pathogens)

Q: And the IC90 (Septoria tritici (St); 48 h, Table 4a)?
A: > 50 µg/mL

Q: What about the IC90 (Septoria tritici (St); 48 h, Table 4b) of the same molecule?
A: > 50 µg/mL

Q: What about the IC90 ([2]; 48 h, Table 4a) of the same molecule?
A: > 50 µg/mL

Q: What about the IC90 ([2]; 48 h, Table 4b) of the same molecule?
A: > 50 µg/mL

Q: And the IC90 (Rhizoctonia solani (Rs); Table 4a)?
A: 2 µg/mL (≈ 3.5 µM)

Q: What about the IC90 (Rhizoctonia solani (Rs); Table 4b) of the same molecule?
A: 2 µg/mL (≈ 3.5 µM)

Q: What about the IC90 ([3]; Table 4a) of the same molecule?
A: 2 µg/mL (≈ 3.5 µM)

Q: What about the IC90 ([3]; Table 4b) of the same molecule?
A: 2 µg/mL (≈ 3.5 µM)

Q: What about the IC90 [4, 6] of the same molecule?
A: 2 µg/mL (≈ 3.5 µM)

Q: What about the IC90 [4, 7] of the same molecule?
A: 2 µg/mL (≈ 3.5 µM)

Q: And the IC90 (Diplodia maydis (Dm); Table 4a)?
A: 2 µg/mL (≈ 3.5 µM)

Q: And the IC90 (Diplodia maydis (Dm); Table 4b)?
A: 2 µg/mL (≈ 3.5 µM)

Q: What about the IC50 (human (hACC2) ACC2) of the same molecule?
A: 10 to 40 nM

Q: And the MIC ([5]; ATCC22019, 48 h)?
A: > 4.1 µg/mL

Q: And the MIC (C. albicans ATCC 90028; ATCC90028, 48 h)?
A: 1.1 to 2 µg/mL (≈ 1.92 to 3.5 µM)

Q: And the MIC (C. krusei ATCC 6258; ATCC6258, 48 h)?
A: 2.1 to 4 µg/mL (≈ 3.67 to 7 µM)

Q: What about the IC50 (fungal (fACC2) ACC2) of the same molecule?
A: 0.6 to 3 nM

Q: For `COc1ccc(F)cc1[C@H](Cn1c(=O)n([C@H](C)C(=O)NC(C)C)c(=O)c2c(C)c(-n3cccn3)sc21)OC(C)C` [Compound I-30, (R)-2-(1-((R)-2-(5-fluoro-2-methoxyphenyl)-2-isopropoxyethyl)-5-methyl-2,4-dioxo-6-(1H-pyrazol-1-yl)-1,4-dihydrothieno[2,3-d]pyrimidin-3(2H)-yl)-N-isopropylpropanamide], which IC90 (Botrtyis cinerea (Bc); Table 4a) is on record?
A: 2 µg/mL (≈ 3.5 µM)

Q: What about the IC90 (Botrtyis cinerea (Bc); Table 4b) of the same molecule?
A: 2 µg/mL (≈ 3.5 µM)

Q: And the IC90 [1]?
A: 0.4 µg/mL (≈ 0.7 µM)

Q: What about the “Concentration at 90% Inhibition Fm” value ([1]; Table 4b, 48 hours) of the same molecule?
A: A (“A” provided a compound concentration of 0.4 ppm at 90% inhibition of fungal pathogens)

Q: And the IC90 (Septoria tritici (St); 48 h, Table 4a)?
A: > 50 µg/mL

Q: And the IC90 (Septoria tritici (St); 48 h, Table 4b)?
A: > 50 µg/mL

Q: What about the IC90 ([2]; 48 h, Table 4a) of the same molecule?
A: > 50 µg/mL

Q: What about the IC90 ([2]; 48 h, Table 4b) of the same molecule?
A: > 50 µg/mL

Q: And the IC90 (Rhizoctonia solani (Rs); Table 4a)?
A: 2 µg/mL (≈ 3.5 µM)

Q: And the IC90 (Rhizoctonia solani (Rs); Table 4b)?
A: 2 µg/mL (≈ 3.5 µM)

Q: And the IC90 ([3]; Table 4a)?
A: 2 µg/mL (≈ 3.5 µM)

Q: What about the IC90 ([3]; Table 4b) of the same molecule?
A: 2 µg/mL (≈ 3.5 µM)

Q: What about the IC90 [4, 6] of the same molecule?
A: 0.4 µg/mL (≈ 0.7 µM)

Q: What about the IC90 [4, 7] of the same molecule?
A: 0.4 µg/mL (≈ 0.7 µM)

Q: And the IC90 (Diplodia maydis (Dm); Table 4a)?
A: 2 µg/mL (≈ 3.5 µM)

Q: What about the IC90 (Diplodia maydis (Dm); Table 4b) of the same molecule?
A: 2 µg/mL (≈ 3.5 µM)

Q: What about the IC50 (human (hACC2) ACC2) of the same molecule?
A: 3 to 10 nM

Q: What about the MIC ([5]; ATCC22019, 48 h) of the same molecule?
A: 0.25 to 1 µg/mL (≈ 0.437 to 1.75 µM)

Q: And the MIC (C. albicans ATCC 90028; ATCC90028, 48 h)?
A: 0.25 to 1 µg/mL (≈ 0.437 to 1.75 µM)

Q: What about the MIC (C. krusei ATCC 6258; ATCC6258, 48 h) of the same molecule?
A: 0.25 to 1 µg/mL (≈ 0.437 to 1.75 µM)

Q: What about the IC50 (fungal (fACC2) ACC2) of the same molecule?
A: 0.6 to 3 nM
